What was measured:
[1] = test system: human neutrophils; test: Rate of NETs formation in PMA-stimulated neutrophils after pre-treatment, counted by confocal microscopy; format: cell-based; conditions: pre-treatment 10 μM for 30 minutes, then PMA 25 nM
[2] = bovine proteins; cited from earlier work
[3] = test system: human neutrophils; test: Specificity experiment: inhibition of NETs formation by DNA concentration in the culture supernatant; format: cell-based; conditions: n=3, p<0.01, FIG. 10
Procedure: About 1 hour after the isolation of the neutrophils described in “1. Method of isolating human neutrophils” in Example 2, the neutrophils were pre-treated. On an 8-well microslide (Cat. No. ib 80826 Ibidi (registered trademark)), the neutrophils were seeded in 400 μl of culture DMEM+2% human serum Alb (serum human albumin; Product No. A9080 Sigma+4 mM L-glutamine) at a rate of about 1.0×10^5 cells/well, and stimulated with PMA (final concentration: 25 nM, stock: 10 mM in DMSO, Sigma Prod No. P8139). At thirty minutes before the stimulation, and at every one hour or every two hours after the stimulation, 200 μg/ml of human lactoferrin (stock: 100 mg/ml, 200 μl; Cat. No. SIGL6793, SIGMA) was added to perform inhibition [FIG. 2].
The culture supernatant was recovered and centrifuged at 200×g for 10 minutes, and the supernatant was transferred to a new microscopic centrifuge tube. The DNA amount was measured by use of Picogreen dsDNA assay reagent (P11496 Invitrogen) in accordance with an accompanying protocol. Treatment with human lactoferrin at one hour and two hours after the stimulation was a similar effect to the prior pre-treatment, the DNA concentration in the culture supernatant decreased, resulting in suppression of the release of the DNAs by the NETs [FIG. 2]. […]

Molecule | formation of the NETs at plateau, compared with stimulation merely with PMA [1] | Isoelectric point [2] | inhibition of the formation of the NETs [3]
c1ccc2c(c1)[I+]c1ccccc1-2 [DPI, diphenyleneiodoniumchloride, reference compound] | ⅓ |  | 
lactoperoxidase [reference compound] |  | 8.0 | Neither lactoperoxidase nor angiogenin inhibited
